Assays:
[1] = tested on: cellules de leucémie L 1210; assay: Oncostatic activity against L 1210 leukaemia (i.p.) in mice, survival T/C; format: in vivo, souris F1, (DBA/2XC57 B 1/6); details: for Dose optimale / T/C max / M.E.D.I. / efficacité (comparison in words): L 1210 i.p.; for T/C max: treated days 1, 5 and 9, suspension in oil, T/C = ∞ when 50 % of the animals are cured, T/C > 125 % = active; for M.E.D.I.: dose plateau of maximum activity corresponding to T/C = ∞; for I = DL50 / D.Opt.: therapeutic index, DL50 divided by optimal dose; for efficacité (comparison in words): 2-chloro-éthylamides compared with the known -NH2 amides (N° 10, 14 et 16)
From the text: L'activité oncostatique de certains composés de l'invention par comparaison à d'autres nitrosourées connues a été déterminée en suivant le protocole expérimental suivant : • Des souris F1, (DBA/2XC57 B 1/6) sont inoculées avec 10^5 cellules de leucémie L 1210 par voie intrapéritonéale au jour 0 et divisées en 5 groupes. Le premier est le groupe de contrôle et les quatre autres sont traités avec les produits à tester à différentes concentrations, aux jours 1,5 et 9. Les composés sont injectés en suspension dans l'huile. La mortalité des animaux est observée et l'autopsie indique si elle est due à la leucémie ou à l'action toxique de la drogue. Les résultats, pour chaque dose de produit, sont exprimés en T/C (%) (T représente la médiane de survie du groupe traité et C la médiane de survie du groupe témoin T/C = ∞ quand 50 % des animaux sont guéris. T/C > 125 % signifie qu'une drogue est active.
Ces essais ont été effectués à l'aide de composés de formule [formula] pour différents amino-acides et différentes significations du substituant X (substituant côté C terminal).
Les significations de X sont les suivantes : • 1) Composés de l'invention : X = -NH-CH2-CH2Cl, -N(CH2-CH2-Cl)2 et -NH-C6H4-N(CH2-CH2-Cl)2 • 2) Composés en dehors de l'invention : X = -NH2 et -NH-C^H3.
Le tableau précédent rapporte les valeurs DL50, T/C, M.E.D.I. (Maximum efficace dose internal = plateau d'activité maximum correspondant à T/C = ∞), dose optimale et Indice thérapeutique.

Acute toxicity (DL50) = details: mouse, in vivo

## C[C@H](NC(=O)N(CCCl)N=O)C(=O)NCCCl [compound 1]
[1]
  Dose optimale: 20 mg/kg
  T/C max: ∞
  M.E.D.I.: 10 to 30 mg/kg
  I = DL50 / D.Opt.: 1,75
Acute toxicity (DL50)
  LD50: 35 mg/kg

## O=NN(CCCl)C(=O)NCCC(=O)NCCCl [compound 2]
[1]
  Dose optimale: 35 mg/kg
  T/C max: ∞
  M.E.D.I.: 20 to 50 mg/kg
  I = DL50 / D.Opt.: 2,86
Acute toxicity (DL50)
  DL50: 100 mg/kg

## O=NN(CCCl)C(=O)N[C@@H](CC(=O)NCCCl)C(=O)NCCCl [compound 3]
[1]
  Dose optimale: 37 mg/kg
  T/C max: ∞
  M.E.D.I.: 25 to 50 mg/kg
  I = DL50 / D.Opt.: 3,50
Acute toxicity (DL50)
  LD50: 130 mg/kg

## O=NN(CCCl)C(=O)NCCCC(=O)NCCCl [compound 7]
[1]
  Dose optimale: 35 mg/kg
  T/C max: ∞
  M.E.D.I.: 20 to 50 mg/kg
  I = DL50 / D.Opt.: 3,57
Acute toxicity (DL50)
  DL50: 125 mg/kg

## CC(C)C[C@H](NC(=O)N(CCCl)N=O)C(=O)NCCCl [compound 9]
[1]
  efficacité (comparison in words): beaucoup plus efficaces
  Dose optimale: 35 mg/kg
  T/C max: ∞
  M.E.D.I.: 15 to 50 mg/kg
  I = DL50 / D.Opt.: 1,80
Acute toxicity (DL50)
  LD50: 64 mg/kg

## O=NN(CCCl)C(=O)NCCCC[C@H](NC(=O)N(CCCl)N=O)C(=O)NCCCl [compound 12]
[1]
  Dose optimale: 30 mg/kg
  T/C max: ∞
  M.E.D.I.: 20 to 40 mg/kg
  I = DL50 / D.Opt.: 4,50
Acute toxicity (DL50)
  LD50: 135 mg/kg

## CSCC[C@H](NC(=O)N(CCCl)N=O)C(=O)NCCCl [compound 13]
[1]
  efficacité (comparison in words): beaucoup plus efficaces
  Dose optimale: 20 mg/kg
  T/C max: ∞
  M.E.D.I.: 10 to 30 mg/kg
  I = DL50 / D.Opt.: 1,60
Acute toxicity (DL50)
  LD50: 32 mg/kg
